{"source": "patent US20230146455A1", "about": "“TREATMENT OF INFLAMMATORY DISEASES WITH PEPTIDES AND PHARMACEUTICAL COMPOSITIONS” (Yuyu Pharma, Inc., priority 2020, published 2023)", "system": "MMP-9", "test": "Example 8 main study Luminex, LPS hPBMCs: MMP-9", "format": "cell-based, human", "protocol": "Human PBMCs were pretreated with YY-101, YDE-011, YDE-043 or reference compound; Xiidra® at various concentration (ranging from […] to 500 nM) for 2 h before stimulation. An equal volume of 0.5% DMSO was used as a vehicle control. Then, the cells were treated with LPS at 5 ug/ml, which was selected based on the pilot study. The supernatants from treated cells were harvested at 24 h and placed in a 96 well for Luminex cytokine & chemokine profiling using a Luminex 200 multiplex assay (Luminex; R&D system, USA).\nThe main study arm with triplicate wells per group in a 24-well plate: • 1. Blank • 2. PBMC: 0.5% DMSO • 3. PBMC+LPS (5 ug/ml) • 4. PBMC+YY-101 500 nM • 5. PBMC+YY-101 50 nM • 6. PBMC+YY-101 5 nM • 7. PBMC+YY-101 0.5 nM • 8. PBMC+LPS (5 ug/ml)+Xiidra® 500 nM • 9. PBMC+LPS (5 ug/ml)+Xiidra® 50 nM • 10. PBMC+LPS (5 ug/ml)+Xiidra® 5 nM • 11. PBMC+LPS (5 ug/ml)+Xiidra® 0.5 nM • 12. PBMC+LPS (5 ug/ml)+Xiidra® 0.05 nM • 13. PBMC+LPS (5 ug/ml)+Xiidra® 0.005 nM • 14. PBMC+LPS (5 ug/ml)+YY-101 500 nM • 15. PBMC+LPS (5 ug/ml)+YY-101 50 nM • 16. PBMC+LPS (5 ug/ml)+YY-101 5 nM • 17. PBMC+LPS (5 ug/ml)+YY-101 0.5 nM • 18. PBMC+LPS (5 ug/ml)+YY-101 0.05 nM • 19. PBMC+LPS (5 ug/ml)+YY-101 0.005 nM • 20. PBMC+LPS (5 ug/ml)+YDE-011 500 nM • 21. PBMC+LPS (5 ug/ml)+YDE-011 50 nM • 22. PBMC+LPS (5 ug/ml)+YDE-011 5 nM • 23. PBMC+LPS (5 ug/ml)+YDE-011 0.5 nM • 24. PBMC+LPS (5 ug/ml)+YDE-011 0.05 nM • 25. PBMC+LPS (5 ug/ml)+YDE-011 0.005 nM • 26. PBMC+LPS (5 ug/ml)+YDE-043 500 nM • 27. PBMC+LPS (5 ug/ml)+YDE-043 50 nM • 28. PBMC+LPS (5 ug/ml)+YDE-043 5 nM • 29. PBMC+LPS (5 ug/ml)+YDE-043 0.5 nM • 30. PBMC+LPS (5 ug/ml)+YDE-043 0.05 nM • 31. PBMC+LPS (5 ug/ml)+YDE-043 0.005 nM\nMultiplex assay was used to measure 30 cytokines and chemokines. The 1:200 diluted cell supernatant and serial dilution of the standard were dispensed into a 96 well plate at 50 ul/well. Then, the pre-mixed cocktail of antibody-coated magnetic beads was dispensed at 50 ul/well and incubated at room temperature for 2 h in a horizontal orbital microplate shaker at 800±500 rpm. The beads were washed using a magnetic device to prevent loss. The biotin-antibody was dispensed in 50 ul of each well and incubated at room temperature for 1 h in a shaker at 800±500 rpm. After washing, streptavidin-PE was added at 50 ul/well and incubated at room temperature for 30 min in a shaker under the same conditions. Finally, after washing, wash buffer (100 ul/well) was added to the plate and incubated in a shaker for 2 min. The Luminex™ 200 setting were set according to the manufacturer's protocol. The data was calculated with a standard five-parameter logistic nonlinear regression analysis of the data (xPonent software 4.2, USA). Results were presented as concentration (ng/ml or pg/ml).", "key": {"[1]": {"details": "PBMC + LPS(5 ug/ml), test article 0.005 nM, Mean"}, "[2]": {"details": "PBMC + LPS(5 ug/ml), test article 0.005 nM, single replicates"}, "[3]": {"details": "PBMC + LPS(5 ug/ml), test article 0.05 nM, Mean"}, "[4]": {"details": "PBMC + LPS(5 ug/ml), test article 0.05 nM, single replicates"}, "[5]": {"details": "PBMC + LPS(5 ug/ml), test article 0.5 nM, Mean"}, "[6]": {"details": "PBMC + LPS(5 ug/ml), test article 0.5 nM, single replicates"}, "[7]": {"details": "PBMC + LPS(5 ug/ml), test article 5 nM, Mean"}, "[8]": {"details": "PBMC + LPS(5 ug/ml), test article 5 nM, single replicates"}, "[9]": {"details": "PBMC + LPS(5 ug/ml), test article 50 nM, Mean"}, "[10]": {"details": "PBMC + LPS(5 ug/ml), test article 50 nM, single replicates"}, "[11]": {"details": "PBMC + LPS(5 ug/ml), test article 500 nM, Mean"}, "[12]": {"details": "PBMC + LPS(5 ug/ml), test article 500 nM, single replicates"}, "[13]": {"details": "PBMC without LPS, test article 0.5 nM, Mean"}, "[14]": {"details": "PBMC without LPS, test article 0.5 nM, single replicates (1st, 2nd)"}, "[15]": {"details": "PBMC without LPS, test article 5 nM, Mean"}, "[16]": {"details": "PBMC without LPS, test article 5 nM, single replicates (1st, 2nd)"}, "[17]": {"details": "PBMC without LPS, test article 0.05 uM, Mean"}, "[18]": {"details": "PBMC without LPS, test article 0.05 uM, single replicates (1st, 2nd)"}, "[19]": {"details": "PBMC without LPS, test article 50 nM, Mean"}, "[20]": {"details": "PBMC without LPS, test article 50 nM, single replicates (1st, 2nd)"}, "[21]": {"details": "PBMC without LPS, test article 500 nM, Mean"}}, "note": "Several values for one entry are separate records, joined by “and”; a condition that tells them apart may be missing. Equal values may be shown once. Where a SMILES comes first, the peptide text is derived from it. [ ]: non-standard residue; d: D form. Hyp = O=C(O)[C@@H]1C[C@@H](O)CN1"}
{"compound": "CC(C)C[C@H](NC(=O)CNC(=O)[C@H](CC(=O)O)NC(=O)[C@H](CCC(N)=O)NC(=O)CNC(=O)[C@@H]1C[C@@H](O)CN1)C(=O)N[C@@H](C)C(=O)NCC(=O)N1CCC[C@H]1C(=O)N[C@@H](CCCCN)C(=O)O", "note": "[YY-101] (H-[Hyp]GQDGLAGPK-OH; N-terminus and C-terminus assumed)", "values": [{"measurement": "Concentration (pg/ml), MMP-9", "setting": "[1]", "result": 4617.5, "unit": "pg/mL"}, {"measurement": "MFI (Bead name: MMP-9)", "setting": "[1]", "result": 31.0}, {"measurement": "Concentration (pg/ml), MMP-9", "setting": "[2]", "result": "3688.0 pg/mL and 4925.2 pg/mL and 5239.4 pg/mL"}, {"measurement": "MFI (Bead name: MMP-9)", "setting": "[2]", "result": "28.0 and 32.0 and 33.0"}, {"measurement": "Concentration (pg/ml), MMP-9", "setting": "[3]", "result": 4977.8, "unit": "pg/mL"}, {"measurement": "MFI (Bead name: MMP-9)", "setting": "[3]", "result": 32.2}, {"measurement": "Concentration (pg/ml), MMP-9", "setting": "[4]", "result": "5239.4 pg/mL and 4925.2 pg/mL and 4768.8 pg/mL"}, {"measurement": "MFI (Bead name: MMP-9)", "setting": "[4]", "result": "33.0 and 32.0 and 31.5"}, {"measurement": "Concentration (pg/ml), MMP-9", "setting": "[5]", "result": 5239.4, "unit": "pg/mL"}, {"measurement": "MFI (Bead name: MMP-9)", "setting": "[5]", "result": 33.0}, {"measurement": "Concentration (pg/ml), MMP-9", "setting": "[6]", "result": 5239.4, "unit": "pg/mL"}, {"measurement": "MFI (Bead name: MMP-9)", "setting": "[6]", "result": 33.0}, {"measurement": "Concentration (pg/ml), MMP-9", "setting": "[7]", "result": 5138.2, "unit": "pg/mL"}, {"measurement": "MFI (Bead name: MMP-9)", "setting": "[7]", "result": 32.7}, {"measurement": "Concentration (pg/ml), MMP-9", "setting": "[8]", "result": "5239.4 pg/mL and 4302.5 pg/mL and 5872.9 pg/mL"}, {"measurement": "MFI (Bead name: MMP-9)", "setting": "[8]", "result": "33.0 and 30.0 and 35.0"}, {"measurement": "Concentration (pg/ml), MMP-9", "setting": "[9]", "result": 5239.9, "unit": "pg/mL"}, {"measurement": "MFI (Bead name: MMP-9)", "setting": "[9]", "result": 33.0}, {"measurement": "Concentration (pg/ml), MMP-9", "setting": "[10]", "result": "5239.4 pg/mL and 4925.2 pg/mL and 5555.3 pg/mL"}, {"measurement": "MFI (Bead name: MMP-9)", "setting": "[10]", "result": "33.0 and 32.0 and 34.0"}, {"measurement": "Concentration (pg/ml), MMP-9", "setting": "[11]", "result": 5135.8, "unit": "pg/mL"}, {"measurement": "MFI (Bead name: MMP-9)", "setting": "[11]", "result": 32.7}, {"measurement": "Concentration (pg/ml), MMP-9", "setting": "[12]", "result": "4612.9 pg/mL and 5239.4 pg/mL and 5555.3 pg/mL"}, {"measurement": "MFI (Bead name: MMP-9)", "setting": "[12]", "result": "31.0 and 33.0 and 34.0"}, {"measurement": "Concentration (pg/ml), MMP-9", "setting": "[13]", "result": 16511.2, "unit": "pg/mL"}, {"measurement": "MFI (Bead name: MMP-9)", "setting": "[13]", "result": 66.5}, {"measurement": "Concentration (pg/ml), MMP-9", "setting": "[14]", "result": "12836.1 pg/mL and 20186.4 pg/mL"}, {"measurement": "MFI (Bead name: MMP-9)", "setting": "[14]", "result": "56.0 and 77.0"}, {"measurement": "Concentration (pg/ml), MMP-9", "setting": "[15]", "result": 14148.8, "unit": "pg/mL"}, {"measurement": "MFI (Bead name: MMP-9)", "setting": "[15]", "result": 59.8}, {"measurement": "Concentration (pg/ml), MMP-9", "setting": "[16]", "result": "16823.6 pg/mL and 11474.0 pg/mL"}, {"measurement": "MFI (Bead name: MMP-9)", "setting": "[16]", "result": "67.5 and 52.0"}, {"measurement": "Concentration (pg/ml), MMP-9", "setting": "[17]", "result": 17040.0, "unit": "pg/mL"}, {"measurement": "MFI (Bead name: MMP-9)", "setting": "[17]", "result": 68.0}, {"measurement": "Concentration (pg/ml), MMP-9", "setting": "[18]", "result": "20901.3 pg/mL and 13178.7 pg/mL"}, {"measurement": "MFI (Bead name: MMP-9)", "setting": "[18]", "result": "79.0 and 57.0"}, {"measurement": "Concentration (pg/ml), MMP-9", "setting": "[19]", "result": 10636.2, "unit": "pg/mL"}, {"measurement": "MFI (Bead name: MMP-9)", "setting": "[19]", "result": 49.5}, {"measurement": "Concentration (pg/ml), MMP-9", "setting": "[20]", "result": "11813.2 pg/mL and 9459.2 pg/mL"}, {"measurement": "MFI (Bead name: MMP-9)", "setting": "[20]", "result": "53.0 and 46.0"}, {"measurement": "Concentration (pg/ml), MMP-9", "setting": "[21]", "result": 11140.0, "unit": "pg/mL"}, {"measurement": "MFI (Bead name: MMP-9)", "setting": "[21]", "result": 51.0}]}
